Our source for the IC50 values is patent US20080146555A1, “Uses of Kinase Inhibitors and Compositions Thereof” (GPC Biotech, Inc, priority 2004, published 2008).

SMILES strings stand for the structures. Where “and” joins values, the source holds several entries; their conditions need not be identical. Equal values may be shown once. Where a name gives a salt, the structure may show the parent alone. Read-outs that look alike come from different tables or passages of the source.

One assay concerns 1A9. Kind of assay: SRB cytotoxicity, 1A9 parental cells. It counts as cell-based. The conditions noted are these: Homo sapiens, 72 h. The procedure: (§1) In these experiments, the P-glycoprotein expressing NCI-Adr resistant subline (Vickers et al., 1989. Mol Endocrinology 3 (1):157-164) was used. […] Briefly, cells were plated in 96 well dishes 24 hours prior to compound addition. Where noted, they were exposed to verapamil for 4 hours prior to compound addition and then throughout the treatment period (72 hours). The assay was terminated with the addition of cold TCA to a final concentration of 10% and the plates were incubated for one hour at 4° C. The plates were then washed 5 times with water and 100 μl of a Sulforhodamine B solution (4%) was added to each well. The plate was then incubated for 10 minutes at room temperature before removal of unbound dye by washing with 1% acetic acid.
The tubulin mutated, paclitaxel-resistant human ovarian carcinoma cell line 1A9-PTX10 and its parental paclitaxel-sensitive cell line 1A9 were derived from the A2780 human ovarian carcinoma cell line (J Biol Chem (1997) 272, 17118-17124).

Another assay deals with A129. Briefly: SRB cytotoxicity, A129 parental cells. It counts as cell-based, human. As to conditions: Homo sapiens, 72 h. Here is the method:
as §1
The parental non-mutated cell line A129 was used as a control.

In a further assay the test system is HCT-116 cells. Kind of assay: Clonogenic survival assay with HCT-116 cells. It counts as cell-based. As to conditions: Homo sapiens, 24 hour compound exposure, read-out: Clonogenic survival IC50, HCT-116.
The target in another assay is Cdk7 (Homo sapiens, UniProt P50613). Kind of assay: Cdk7 inhibition. It counts as biochemical. An excerpt:
Further inhibition results for subject compounds of the invention against other CDKs and further kinases are shown in Table 5, Table II and described in Example 6.
Table 3, Table 4, Table 5 and Table II show the results obtained for inhibition of a broad range of such kinases for subject compounds of the invention.

The test system of assay [1] is normal human fibroblast, IMR90. Briefly: Calcein AM viability assay, IMR90. As to conditions: IMR-90, text b600. It counts as cell-based. In short, it runs like this: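 Cells (HCT-116 1,000, IMR90 4,000 per well) adhered overnight, then received 7 doses from 0 to 250 nM for 72 h at 37 °C. Viability read as calcein fluorescence after 75 min with Calcein AM; IC50 values, with protein-adjusted values also obtained in HCT-116.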

For a further assay, the system named is CEM. Briefly: SRB cytotoxicity, CEM parental cells. It counts as cell-based. As to conditions: Homo sapiens, CCRF-CEM, 72 h. Here is the method: as §1
The Camptothecin resistant CEM/C2 cells were derived from the T lymphoblastoid leukemia cell line CCRF/CEM by selection in the presence of Camptothecin in vitro (Kapoor et al., 1995. Oncology Research 7; 83-95, ATCC).
The effects of A37 and B16 were evaluated in the CCRF/CEM and CEM/C2 cells using the same SRB assay as described above, with 72-hour drug exposure.

Another assay deals with T1, CDKs.
T1 construct: IC50 range over CDK1-7; other: 6 CDKs / CDK1-7; Cdk2/his-cyclin Eshort was expressed in Sf9 cells; Cdk2/cyclin A, cdk4/cyclin D1, and cdk6/cyclin D2 were expressed in Sf9 cells
Briefly: Kinase panel, CDKs (average/range). It counts as biochemical.

Where [2] appears, read: 6 CDKs / CDK1-7, read-out: average IC50 for CDKs.

As a reminder, the IC50 is the midpoint of a concentration-inhibition curve.

Sequence of Cdk7 (P50613 whole entry, species assumed): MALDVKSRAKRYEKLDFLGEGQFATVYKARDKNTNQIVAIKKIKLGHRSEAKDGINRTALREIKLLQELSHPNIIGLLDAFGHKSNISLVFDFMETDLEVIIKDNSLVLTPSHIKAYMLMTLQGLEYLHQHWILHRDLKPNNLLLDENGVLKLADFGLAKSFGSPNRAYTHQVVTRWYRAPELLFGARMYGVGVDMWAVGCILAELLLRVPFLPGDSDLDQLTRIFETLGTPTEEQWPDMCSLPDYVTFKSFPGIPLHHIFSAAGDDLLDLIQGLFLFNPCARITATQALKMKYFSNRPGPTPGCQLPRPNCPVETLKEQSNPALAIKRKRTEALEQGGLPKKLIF
Sequence of Cdk7 (P51946 whole entry partner, species assumed): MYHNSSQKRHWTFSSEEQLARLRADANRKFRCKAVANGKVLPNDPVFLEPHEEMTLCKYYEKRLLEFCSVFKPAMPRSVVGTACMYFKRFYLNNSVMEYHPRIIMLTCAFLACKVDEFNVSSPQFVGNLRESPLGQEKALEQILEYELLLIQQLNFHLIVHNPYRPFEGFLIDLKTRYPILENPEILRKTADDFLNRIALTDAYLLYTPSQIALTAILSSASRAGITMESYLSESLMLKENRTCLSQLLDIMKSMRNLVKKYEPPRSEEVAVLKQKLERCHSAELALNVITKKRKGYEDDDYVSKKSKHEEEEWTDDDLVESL
Sequence of Cdk7 (P51948 whole entry partner, species assumed): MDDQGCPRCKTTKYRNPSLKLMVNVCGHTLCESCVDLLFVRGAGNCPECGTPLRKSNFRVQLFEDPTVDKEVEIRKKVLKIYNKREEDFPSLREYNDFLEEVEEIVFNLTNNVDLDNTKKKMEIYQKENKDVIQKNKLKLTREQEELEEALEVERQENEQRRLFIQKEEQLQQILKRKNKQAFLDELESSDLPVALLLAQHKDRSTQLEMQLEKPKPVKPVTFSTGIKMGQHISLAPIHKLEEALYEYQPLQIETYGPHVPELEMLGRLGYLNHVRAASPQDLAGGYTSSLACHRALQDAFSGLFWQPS

Regarding `CC(C)N1CCN(C(=O)COc2ccc(-c3n[nH]c4c3C(=O)c3c(NC(=O)NN5CCOCC5)cccc3-4)cc2)CC1` [Compound A37], the IC50 in the assay on 1A9 is 13.3 nM; in the assay on A129 it was 5.7 nM; in the assay on HCT-116 cells, less than 50 nM; at Cdk7, less than 500 nM; in assay [1], less than 50 nM; in the assay on CEM it was 21.3 nM. For the same molecule, the IC50 at CDKs (setting [2]) is ~42 nM and 42 nM; at CDKs (read-out: IC50 range over CDK1-7), 3 to 155 nM.
Take `COCCN1CCN(Cc2ccc(-c3n[nH]c4c3C(=O)c3c(NC(=O)NN5CCOCC5)cccc3-4)cc2)CC1` [Compound B16, N-[3-(4-{[4-(2-methoxyethyl)piperazinyl]methyl}phenyl)-4-oxoindeno[2,3-d]pyrazol-5-yl](morpholin-4-ylamino)carboxamide dihydrochloride]: the IC50 is 10.7 nM in the assay on 1A9; 8.7 nM with A129; less than 100 nM in the assay on HCT-116 cells; less than 50 nM at Cdk7; less than 100 nM in assay [1]; 25 nM in the assay with CEM. Moreover, the 50% inhibitory concentration (IC50) on CDKs (setting [2]) was approximately 17 nM.
